Experiments:
JAK1 = JAK1 (Homo sapiens, UniProt P23458); experiment: JAK kinase inhibitory activity, HTRF biochemical assay
Experimental: (§1) The compounds of the above embodiments were applied to the detection and screening of JAK kinase inhibitory activity.
(§2) A corresponding volume of DMSO was added to each well of a first 96-well plate. 20-30 μL of 100-200 μM stock solution of different test compounds were added to each well. The mixture was shaken and mixed for 3 min. All of the compounds were subjected to 3× serial dilution. 60-80 μL Kinase buffer was added to each well of a second 96-well plate, and 1-2 μL of the solution taken from each well of the first 96-well plate was added to the corresponding well of the second 96-well plate. The mixture was shaken and mixed for 3 min. 5 μL of compound dilution taken from each well of the second compound dilution plate was transferred to the corresponding well of a 384-well test plate. 1-2 μL TK Substrate-biotin was added to each well of the test plate. 1-2 μL of enzyme mixture was added to each well. At the same time, a blank well without enzyme was set. 1-2 μL of ATP solution was added to each well, the plate was sealed and reacted at room temperature. The reaction time was as follows: JAK1: 2 h, JAK2: 30 min, JAK3: 30 min, and TYK2: 50 min. 3-5 μL of Streptavidin-XL665 and 3-5 μL of TK Antibody-cryptate were added to each well, the plate was sealed and allowed to stand at room temperature for 30 min to complete the reaction.
(§3) The percentage of inhibition was calculated based on the following formula:
(§4) Inhibition %=[(Ratiomax−Ratiocompound)/(Ratiomax−Ratiomin)]×100%
(§5) Ratiocompound is the HTRF ratio at a given compound concentration, Ratiomin is the HTRF ratio added to the blank well, and Ratiomax is the HTRF ratio without adding the compound. GraphPad Prism 5.0 software was used to plot a sigmoid dose-inhibition rate curve with a non-linear regression model and calculate the IC50 value.

JAK2 = JAK2 (Homo sapiens, UniProt O60674); experiment: as above
Experimental: as §1, §2, §3, §4, §5

JAK3 = target: T1, JAK3 (Homo sapiens, UniProt P52333); experiment: as above
T1 sequence (P52333 1-1124): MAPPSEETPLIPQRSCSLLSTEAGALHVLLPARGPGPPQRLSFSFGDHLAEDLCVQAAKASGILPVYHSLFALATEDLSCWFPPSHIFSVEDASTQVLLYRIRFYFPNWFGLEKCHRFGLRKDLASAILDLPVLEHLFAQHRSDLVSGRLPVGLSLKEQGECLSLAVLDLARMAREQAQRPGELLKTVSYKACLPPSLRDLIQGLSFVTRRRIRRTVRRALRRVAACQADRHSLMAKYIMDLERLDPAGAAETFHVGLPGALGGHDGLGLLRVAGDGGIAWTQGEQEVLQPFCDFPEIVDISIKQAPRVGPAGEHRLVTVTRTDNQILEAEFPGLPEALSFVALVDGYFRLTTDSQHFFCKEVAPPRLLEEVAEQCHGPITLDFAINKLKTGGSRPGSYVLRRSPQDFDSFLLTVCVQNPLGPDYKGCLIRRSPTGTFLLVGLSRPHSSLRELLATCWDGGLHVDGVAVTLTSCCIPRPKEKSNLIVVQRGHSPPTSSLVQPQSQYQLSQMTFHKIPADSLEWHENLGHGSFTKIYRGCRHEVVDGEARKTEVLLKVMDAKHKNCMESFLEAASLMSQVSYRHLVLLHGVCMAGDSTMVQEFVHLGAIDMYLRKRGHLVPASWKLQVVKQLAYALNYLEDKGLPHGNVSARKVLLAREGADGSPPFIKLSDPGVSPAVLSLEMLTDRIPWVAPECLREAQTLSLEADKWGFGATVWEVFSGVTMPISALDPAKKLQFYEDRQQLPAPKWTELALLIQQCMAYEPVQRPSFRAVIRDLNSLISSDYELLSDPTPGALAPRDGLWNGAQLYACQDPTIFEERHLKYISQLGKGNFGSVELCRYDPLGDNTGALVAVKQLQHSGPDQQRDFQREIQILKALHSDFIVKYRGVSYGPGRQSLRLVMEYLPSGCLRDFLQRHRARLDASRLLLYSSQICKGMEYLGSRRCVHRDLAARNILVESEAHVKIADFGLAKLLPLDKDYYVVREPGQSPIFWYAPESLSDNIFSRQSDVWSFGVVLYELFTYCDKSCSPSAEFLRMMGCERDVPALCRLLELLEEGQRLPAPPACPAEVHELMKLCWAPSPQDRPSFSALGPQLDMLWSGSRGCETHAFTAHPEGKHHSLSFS
Experimental: as §1, §2, §3, §4, §5

TYK2 = TYK2 (Homo sapiens, UniProt P29597); experiment: as above
Experimental: as §1, §2, §3, §4, §5

Hela cells = experiment: Proliferation inhibition based on Hela cells (OSM stimulation, CTG); assay type: cell-based; conditions: Homo sapiens, OSM stimulation, read-out: IC50 (uM), proliferation inhibitory activity on Hela cells
Experimental: 1. Cell plating: cultured cells were collected and counted for viable cells with Vi-Cell XR cell counter. The cell suspension was adjusted to an appropriate concentration with the medium and then added to a 96-well cell culture plate. 50 μL-100 μL of the cell suspension was added to each well of the 96-well cell culture plate. The cell plating density depended on the growth rate of the cells. The cells were cultured in corresponding incubators.
2. Drug Treatment and OSM Stimulation
Firstly, a series of test compound concentration (work solution-1) was prepared using DMSO with 3× gradient dilution, and then it was subjected to fold dilution with RPMI1640+10% FBS to obtain a work solution-2; Cisplatin's work solution-2 was prepared with RPMI1640+10% FBS, and then 1-10 μL solution taken from the work solution-2 was added to the prepared cell wells containing medium. After incubation, 1-10 μL of OSM medium was added to each well and continued to culture. An appropriate CTG solution was added to each well. The mixture was shaken and mixed for 1-5 min and then a luminescence signal was determined with an Envision2104 plate reader.
(§6) Cell Survival Rate Calculation
(§7) T is the luminescence reading of a drug treatment group, and C is the average luminescence reading of a solvent control group.

BaF3 cells = experiment: Proliferation inhibition based on BaF3 cells (IL-3 medium, CTG); assay type: cell-based; conditions: Mus musculus, medium containing IL-3, read-out: IC50 (uM), proliferation inhibitory activity on BaF3 cells
Experimental: 1. Cell plating: cultured cells were collected with RPMI1640+10% FBS (containing IL-3) medium and counted for viable cells with Vi-Cell XR cell counter. The cell suspension was adjusted to an appropriate concentration with RPMI1640+10% FBS (containing IL-3) medium and then added to a 96-well cell culture plate. A certain amount of cell suspension was added to each well of the 96-well cell culture plate. The cells were cultured in corresponding incubators.
2. Drug treatment: a series of test compound concentration (work solution-1) was prepared using DMSO with 3× gradient dilution, and then it was subjected to fold dilution with RPMI1640+10% FBS (containing IL-3) to obtain a work solution-2; Cisplatin's work solution-2 was prepared with RPMI1640+10% FBS (containing IL-3), and then 1-10 μL solution taken from the work solution-2 was added to the prepared cell wells containing medium. The cells were cultured in the corresponding incubators. An appropriate CTG solution was added to each well.
as §6, §7

Chain of TYK2 (P29597 whole entry, species assumed): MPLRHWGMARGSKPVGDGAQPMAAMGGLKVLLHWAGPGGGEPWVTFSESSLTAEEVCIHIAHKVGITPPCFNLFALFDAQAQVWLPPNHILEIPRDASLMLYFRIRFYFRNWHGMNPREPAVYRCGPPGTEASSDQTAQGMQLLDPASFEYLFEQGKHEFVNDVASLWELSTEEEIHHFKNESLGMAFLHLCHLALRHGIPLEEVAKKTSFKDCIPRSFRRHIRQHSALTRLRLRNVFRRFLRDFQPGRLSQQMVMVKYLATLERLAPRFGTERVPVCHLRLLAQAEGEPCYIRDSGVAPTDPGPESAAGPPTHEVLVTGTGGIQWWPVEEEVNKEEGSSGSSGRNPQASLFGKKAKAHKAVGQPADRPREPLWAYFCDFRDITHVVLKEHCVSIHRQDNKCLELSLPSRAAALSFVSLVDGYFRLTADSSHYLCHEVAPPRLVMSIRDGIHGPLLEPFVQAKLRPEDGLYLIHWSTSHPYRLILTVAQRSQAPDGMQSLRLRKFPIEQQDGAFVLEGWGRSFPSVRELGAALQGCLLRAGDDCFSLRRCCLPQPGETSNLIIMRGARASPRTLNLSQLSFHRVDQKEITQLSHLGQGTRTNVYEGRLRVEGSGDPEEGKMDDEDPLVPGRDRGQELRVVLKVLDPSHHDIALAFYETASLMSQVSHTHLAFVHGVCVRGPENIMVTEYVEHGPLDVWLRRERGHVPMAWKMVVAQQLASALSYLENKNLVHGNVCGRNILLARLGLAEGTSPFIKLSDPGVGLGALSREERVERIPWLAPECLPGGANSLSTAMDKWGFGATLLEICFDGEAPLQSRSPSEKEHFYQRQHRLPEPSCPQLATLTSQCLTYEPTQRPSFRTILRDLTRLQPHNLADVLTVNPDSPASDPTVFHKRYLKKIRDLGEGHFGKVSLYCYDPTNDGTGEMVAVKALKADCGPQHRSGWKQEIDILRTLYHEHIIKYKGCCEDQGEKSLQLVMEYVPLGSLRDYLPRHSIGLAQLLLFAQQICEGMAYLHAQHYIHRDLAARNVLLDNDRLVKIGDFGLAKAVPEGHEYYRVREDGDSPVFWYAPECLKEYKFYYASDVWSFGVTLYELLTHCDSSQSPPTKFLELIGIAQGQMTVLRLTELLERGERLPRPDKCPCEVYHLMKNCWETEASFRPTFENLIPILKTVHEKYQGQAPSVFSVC
Chain of JAK1 (P23458 whole entry, species assumed): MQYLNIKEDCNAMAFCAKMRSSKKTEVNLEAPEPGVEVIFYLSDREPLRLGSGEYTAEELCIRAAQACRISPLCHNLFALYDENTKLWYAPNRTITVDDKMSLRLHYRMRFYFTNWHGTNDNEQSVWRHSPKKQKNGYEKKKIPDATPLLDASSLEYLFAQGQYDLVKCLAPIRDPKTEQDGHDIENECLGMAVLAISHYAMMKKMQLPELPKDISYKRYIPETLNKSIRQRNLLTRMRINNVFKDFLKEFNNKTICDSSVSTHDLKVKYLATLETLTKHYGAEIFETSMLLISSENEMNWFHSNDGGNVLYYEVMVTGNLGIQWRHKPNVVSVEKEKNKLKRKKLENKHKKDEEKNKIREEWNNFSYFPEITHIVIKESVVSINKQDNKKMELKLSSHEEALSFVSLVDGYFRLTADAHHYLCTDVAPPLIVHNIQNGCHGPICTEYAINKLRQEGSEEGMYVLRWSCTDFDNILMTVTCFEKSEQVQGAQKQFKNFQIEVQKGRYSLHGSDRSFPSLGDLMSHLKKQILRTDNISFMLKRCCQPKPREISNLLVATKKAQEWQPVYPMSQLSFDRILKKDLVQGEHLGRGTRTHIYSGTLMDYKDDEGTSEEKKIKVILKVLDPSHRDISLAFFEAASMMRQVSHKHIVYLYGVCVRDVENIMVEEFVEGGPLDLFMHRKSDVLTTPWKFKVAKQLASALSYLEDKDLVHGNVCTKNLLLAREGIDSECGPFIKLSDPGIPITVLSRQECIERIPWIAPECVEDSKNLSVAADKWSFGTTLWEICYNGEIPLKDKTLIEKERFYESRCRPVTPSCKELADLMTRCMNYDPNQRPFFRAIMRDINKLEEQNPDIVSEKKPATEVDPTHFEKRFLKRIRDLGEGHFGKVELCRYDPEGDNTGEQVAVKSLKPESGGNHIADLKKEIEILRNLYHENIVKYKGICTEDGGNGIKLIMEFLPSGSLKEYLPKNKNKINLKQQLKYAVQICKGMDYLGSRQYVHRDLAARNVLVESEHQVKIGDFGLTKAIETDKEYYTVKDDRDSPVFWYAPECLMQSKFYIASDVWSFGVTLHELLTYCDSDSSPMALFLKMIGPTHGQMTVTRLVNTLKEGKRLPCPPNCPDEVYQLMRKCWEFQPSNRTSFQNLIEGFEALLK
Chain of JAK2 (O60674 whole entry, species assumed): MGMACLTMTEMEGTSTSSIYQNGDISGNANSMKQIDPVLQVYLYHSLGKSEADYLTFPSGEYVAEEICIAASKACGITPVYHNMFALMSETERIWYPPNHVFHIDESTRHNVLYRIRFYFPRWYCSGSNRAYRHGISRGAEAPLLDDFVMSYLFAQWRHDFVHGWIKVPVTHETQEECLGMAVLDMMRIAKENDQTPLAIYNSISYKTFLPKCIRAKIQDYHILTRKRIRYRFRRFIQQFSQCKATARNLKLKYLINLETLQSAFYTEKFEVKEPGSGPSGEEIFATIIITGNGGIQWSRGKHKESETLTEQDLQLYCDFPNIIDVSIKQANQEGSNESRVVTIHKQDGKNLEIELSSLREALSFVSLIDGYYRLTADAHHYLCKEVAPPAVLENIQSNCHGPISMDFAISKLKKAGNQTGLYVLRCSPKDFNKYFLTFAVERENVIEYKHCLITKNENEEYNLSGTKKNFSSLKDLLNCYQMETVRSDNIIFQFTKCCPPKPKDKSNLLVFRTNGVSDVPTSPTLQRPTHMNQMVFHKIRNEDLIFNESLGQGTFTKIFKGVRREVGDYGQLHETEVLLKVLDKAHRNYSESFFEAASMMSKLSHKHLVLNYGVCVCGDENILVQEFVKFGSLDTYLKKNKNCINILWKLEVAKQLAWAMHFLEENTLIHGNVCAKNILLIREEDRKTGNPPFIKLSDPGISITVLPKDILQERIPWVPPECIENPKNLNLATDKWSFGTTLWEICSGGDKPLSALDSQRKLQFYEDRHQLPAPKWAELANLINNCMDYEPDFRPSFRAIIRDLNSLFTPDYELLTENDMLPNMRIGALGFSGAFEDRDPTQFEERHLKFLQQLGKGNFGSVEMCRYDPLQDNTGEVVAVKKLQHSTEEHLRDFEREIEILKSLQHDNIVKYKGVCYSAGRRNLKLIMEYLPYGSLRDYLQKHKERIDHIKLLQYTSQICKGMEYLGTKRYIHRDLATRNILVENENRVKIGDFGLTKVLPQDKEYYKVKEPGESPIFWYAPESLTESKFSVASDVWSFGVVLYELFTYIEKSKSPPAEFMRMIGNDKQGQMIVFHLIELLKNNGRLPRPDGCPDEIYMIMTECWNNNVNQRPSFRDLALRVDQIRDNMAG

SMILES | IC50 (JAK1) | IC50 (JAK2) | IC50 (JAK3) | IC50 (TYK2) | IC50 (Hela cells) | IC50 (BaF3 cells)
O=C(Nc1cn2c(-c3ccc(CN4CCS(=O)(=O)CC4)s3)cccc2n1)[C@H]1C[C@@H]1F (relative stereo) [EXP-3, trans-N-[5-[5-[(1,1-dioxo-1,4-thiazin-4-yl)methyl]-2-thiophene]imidazo[1,2-a]pyridin-2-yl]-2-fluoro-cyclopropylcarboxamide] | 10 to 30 nM | 30 to 50 nM | > 500 nM | > 500 nM | < 5 µM | < 5 µM
O=C(Nc1nc2cccc(-c3ccc(CN4CCS(=O)(=O)CC4)s3)n2n1)C1CC1 [EXP-1] | 30 to 50 nM | 30 to 50 nM | 50 to 500 nM | > 500 nM | < 5 µM | < 5 µM

— patent US20220274983A1, “JAK KINASE INHIBITOR AND USE THEREOF” (JIANGSU CAREPHAR PHARMACEUTICAL CO., LTD., priority 2019, published 2022)
